Test results as given in patent publication US20120065126A1, “Pharmaceutical Compositions Containing Antifungal Peptides” (BASF SE, priority 2009, published 2012).

How the values were obtained:
Malassezia furfur = test: Growth inhibition at equal concentrations by weight of P18, zinc pyrithione, climbazole, ketoconazole (CFU); format: cell-based
Protocol: The studies described hereinafter were conducted on the Malassezia furfur strain DSM 6170.
For this purpose, the procedure was as follows:
The growth test was effected as follows: a shake culture containing M472 Pityrosporum medium was inoculated with M. furfur and incubated with shaking at 30° C. and 200 rpm overnight.
A 96-well microtiter plate was filled with 100 μl per well of M472 Pityrosporum medium and inoculated with M. furfur suspension from the overnight culture. The M. furfur suspension was adjusted at the start of the experiment to an optical density, measured at 600 nm, of 0.02. The concentrates of the inhibitor solutions were 1 mM in DMSO for P18 peptide and 10 mM in DMSO for zinc pyrithione, ketoconazole and climbazole. The final DMSO concentration was kept the same in all experiments.
The following growth was compared by measuring the optical density: • M. furfur suspension and addition of the P18 solution with a final concentration of 50 μM (corresponds to 0.0115% (w/w)) • M. furfur suspension and addition of the zinc pyrithione (ZPT) solution with a final concentration of 362 μM (comparison to the mixture containing 50 μM P18 peptide) • M. furfur suspension and addition of the ketoconazole solution with a final concentration of 216 μM (comparison to the mixture containing 50 μM P18 peptide) • M. furfur suspension and addition of the climbazole solution with a final concentration of 390 μM (comparison to the mixture containing 50 μM P18 peptide)
The microtiter plate was incubated with shaking at 30° C.
[…] After incubation over the course of 6 days, the colonies on the plate were counted. The CFU was determined in order to rule out any influence of the biphasic medium, and also the growth form of M. furfur, on the optical density. The experiments were each conducted in double determination, at least in two independent experiments.

[1] = test system: Staphylococcus epidermidis (DSM 1798); test: Short-term effect (CFU); format: cell-based; conditions: for Inhibition in words: up to 60 minutes
Protocol: For this purpose, the procedure was as follows.
TSBY growth medium: Ready-made TSB medium (Becton, Dickinson and Company, Sparks, USA); 17 g of pancreatin-degraded casein 3 g of pancreatin-degraded soya 2.5 g of dextrose 5 g of sodium chloride 2.5 g of dipotassium phosphate 3 g of yeast extract (Becton, Dickinson and Company, Sparks, USA) make up to 1 liter, set pH 7
The growth test was effected as follows: 5 ml of TSBY medium were inoculated with S. epidermidis and incubated at 37° C. and 200 rpm overnight.
1.5 ml reaction vessels were each filled with 1 ml of TSBY medium and inoculated with S. epidermidis suspension from the overnight culture. The S. epidermidis suspension was adjusted at the start of the experiment to an optical density, measured at 600 nm, of 0.1. The concentration of the peptide solution in water or ZPT solution (zinc pyrithione, >96%, Sigma Aldrich) dissolved in DMSO was 2% (w/w).
The following growth was compared: • S. epidermidis suspension and addition of P18 peptide with a final concentration in the 1.5 ml reaction vessel of 50 ppm after 5 minutes, 10 minutes, 20 minutes and 60 minutes • S. epidermidis suspension and addition of P18 peptide with a final concentration in the 1.5 ml reaction vessel of 100 ppm after 5 minutes, 10 minutes, 20 minutes and 60 minutes • S. epidermidis suspension and addition of P18 peptide with a final concentration in the 1.5 ml reaction vessel of 200 ppm after 5 minutes, 10 minutes, 20 minutes and 60 minutes • S. epidermidis suspension and addition of P18 peptide with a final concentration in the 1.5 ml reaction vessel of 500 ppm after 5 minutes, 10 minutes, 20 minutes and 60 minutes • S. epidermidis suspension and addition of P18 peptide with a final concentration in the 1.5 ml reaction vessel of 1000 ppm after 5 minutes, 10 minutes, 20 minutes and 60 minutes • S. epidermidis suspension and addition of ZPT with a final concentration in the 1.5 ml reaction vessel of 50 ppm after 5 minutes, 10 minutes, 20 minutes and 60 minutes • S. epidermidis suspension and addition of ZPT with a final concentration in the 1.5 ml reaction vessel of 100 ppm after 5 minutes, 10 minutes, 20 minutes and 60 minutes • S. epidermidis suspension and addition of ZPT with a final concentration in the 1.5 ml reaction vessel of 200 ppm after 5 minutes, 10 minutes, 20 minutes and 60 minutes • S. epidermidis suspension and addition of ZPT with a final concentration in the 1.5 ml reaction vessel of 500 ppm after 5 minutes, 10 minutes, 20 minutes and 60 minutes • S. epidermidis suspension and addition of ZPT with a final concentration in the 1.5 ml reaction vessel of 1000 ppm after 5 minutes, 10 minutes, 20 minutes and 60 minutes
The 1.5 ml reaction vessels were incubated at room temperature.
After the incubation times specified, the colony forming units (CFU) were determined by streaking 1 μl of each of the suspensions diluted in 20 μl of TSBY medium and, after incubation for 2 days, counting the colonies.

Row | Substance | Colony forming units after the incubation time specified ([1]; 50 ppm, 5 minutes) [CFU] | Colony forming units after the incubation time specified ([1]; 50 ppm, 10 minutes) [CFU] | Colony forming units after the incubation time specified ([1]; 50 ppm, 20 minutes) [CFU] | Colony forming units after the incubation time specified ([1]; 50 ppm, 60 minutes) [CFU] | Colony forming units after the incubation time specified ([1]; 100 ppm, 5 minutes) [CFU] | Colony forming units after the incubation time specified ([1]; 100 ppm, 10 minutes) [CFU] | Colony forming units after the incubation time specified ([1]; 100 ppm, 20 minutes) [CFU] | Colony forming units after the incubation time specified ([1]; 100 ppm, 60 minutes) [CFU] | Colony forming units after the incubation time specified ([1]; 200 ppm, 5 minutes) [CFU] | Colony forming units after the incubation time specified ([1]; 200 ppm, 10 minutes) [CFU] | Colony forming units after the incubation time specified ([1]; 200 ppm, 20 minutes) [CFU] | Colony forming units after the incubation time specified ([1]; 200 ppm, 60 minutes) [CFU] | Colony forming units after the incubation time specified ([1]; 500 ppm, 5 minutes) [CFU] | Colony forming units after the incubation time specified ([1]; 500 ppm, 10 minutes) [CFU] | Colony forming units after the incubation time specified ([1]; 500 ppm, 20 minutes) [CFU] | Colony forming units after the incubation time specified ([1]; 500 ppm, 60 minutes) [CFU] | Colony forming units after the incubation time specified ([1]; 1000 ppm, 5 minutes) [CFU] | Colony forming units after the incubation time specified ([1]; 1000 ppm, 10 minutes) [CFU] | Colony forming units after the incubation time specified ([1]; 1000 ppm, 20 minutes) [CFU] | Colony forming units after the incubation time specified ([1]; 1000 ppm, 60 minutes) [CFU] | other results
1 | H-KWKLFKKIPKFLHLAKKF-NH2 [P18, H-KWKLFKKIPKFLHLAKKF-NH2] | 221 ± 5 | 19 ± 3 | 4.75 ± 0.4 | 0.75 ± 0.4 | 171 ± 219 | 6.5 ± 4.2 | 0.5 ± 0 | 0 ± 0 | 14 ± 18 | 5.75 ± 4.6 | 0.25 ± 0.4 | 0 ± 0 | 19 ± 22 | 0.25 ± 0.4 | 0.75 ± 1.1 | 0 ± 0 | 1.25 ± 0.4 | 0 ± 0 | 0 ± 0 | 0 ± 0 | Colony forming units (CFU) (Malassezia furfur; final conc. 50 μM (0.0115% (w/w)), 24 h): 1 ± 1 CFU; Colony forming units (CFU) (Malassezia furfur; final conc. 50 μM (0.0115% (w/w)), 40 h): 0 ± 0 CFU
2 | zinc pyrithione [ZPT] | 2000 ± 0 | 2000 ± 0 | 1033 ± 1368 | 522 ± 721 | 2000 ± 0 | 2000 ± 0 | 1200 ± 1131 | 707 ± 698 | 2000 ± 0 | 2000 ± 0 | 2000 ± 0 | 2000 ± 0 | 2000 ± 0 | 2000 ± 0 | 2000 ± 0 | 2000 ± 0 | 2000 ± 0 | 2000 ± 0 | 2000 ± 0 | 2000 ± 0 | Colony forming units (CFU) (Malassezia furfur; final conc. 362 μM, 24 h): 60 ± 40 CFU; Colony forming units (CFU) (Malassezia furfur; final conc. 362 μM, 40 h): 26 ± 7 CFU; Inhibition in words ([1]; 50 ppm and 100 ppm): low inhibition; Inhibition in words ([1]; higher concentrations (200-1000 ppm)): no significant inhibition
